# Source: ChEMBL document CHEMBL1121801, “Salicylamide derivatives related to medroxalol with alpha- and beta-adrenergic antagonist and antihypertension activity” (J Med Chem, 1981)
# How the values were obtained:
# Adrenergic receptor beta = Adrenergic receptor beta (Homo sapiens, UniProt P08588+P07550+P13945); assay: In vitro blocking activity against beta adrenergic receptor, isolated from guinea pig atria; format: protein assay
# Oryctolagus cuniculus = species: Oryctolagus cuniculus; assay: Ratio of pA2 for beta-adrenergic receptor to that of alpha-adrenergic receptor
# [1] = target: T1, Adrenergic receptor alpha-1 (Homo sapiens, UniProt P35348+P25100+P35368); assay: In vitro blocking activity against alpha adrenergic receptor, isolated from rabbit aortic strip; format: protein assay, Oryctolagus cuniculus
# T1 sequence (P35348 whole entry): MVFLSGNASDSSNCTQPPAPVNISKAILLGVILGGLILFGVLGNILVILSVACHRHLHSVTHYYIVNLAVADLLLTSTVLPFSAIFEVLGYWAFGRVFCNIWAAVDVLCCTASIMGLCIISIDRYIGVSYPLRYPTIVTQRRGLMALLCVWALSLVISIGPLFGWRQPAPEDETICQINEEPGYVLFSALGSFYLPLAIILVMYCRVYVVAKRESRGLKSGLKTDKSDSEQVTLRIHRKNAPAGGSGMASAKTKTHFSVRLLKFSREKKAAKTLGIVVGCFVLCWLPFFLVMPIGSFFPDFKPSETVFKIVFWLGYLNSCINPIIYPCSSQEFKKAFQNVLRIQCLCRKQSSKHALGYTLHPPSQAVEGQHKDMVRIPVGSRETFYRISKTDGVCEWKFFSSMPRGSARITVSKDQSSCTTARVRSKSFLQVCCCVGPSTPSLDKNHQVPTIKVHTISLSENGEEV
# T1 sequence (P25100 whole entry): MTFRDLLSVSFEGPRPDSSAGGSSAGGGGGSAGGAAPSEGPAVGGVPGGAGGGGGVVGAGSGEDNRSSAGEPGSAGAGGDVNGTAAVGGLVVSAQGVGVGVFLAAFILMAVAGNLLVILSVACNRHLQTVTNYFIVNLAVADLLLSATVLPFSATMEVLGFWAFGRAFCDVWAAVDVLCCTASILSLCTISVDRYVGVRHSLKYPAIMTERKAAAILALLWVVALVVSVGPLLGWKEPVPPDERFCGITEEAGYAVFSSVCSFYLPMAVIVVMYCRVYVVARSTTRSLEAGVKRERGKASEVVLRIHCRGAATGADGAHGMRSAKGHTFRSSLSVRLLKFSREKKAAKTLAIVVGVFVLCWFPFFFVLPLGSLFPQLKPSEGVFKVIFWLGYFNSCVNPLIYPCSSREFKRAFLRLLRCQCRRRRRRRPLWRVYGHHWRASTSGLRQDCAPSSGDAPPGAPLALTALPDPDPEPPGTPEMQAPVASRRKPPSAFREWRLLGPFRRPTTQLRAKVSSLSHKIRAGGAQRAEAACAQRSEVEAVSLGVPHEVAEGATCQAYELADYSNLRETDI
# T1 sequence (P35368 whole entry): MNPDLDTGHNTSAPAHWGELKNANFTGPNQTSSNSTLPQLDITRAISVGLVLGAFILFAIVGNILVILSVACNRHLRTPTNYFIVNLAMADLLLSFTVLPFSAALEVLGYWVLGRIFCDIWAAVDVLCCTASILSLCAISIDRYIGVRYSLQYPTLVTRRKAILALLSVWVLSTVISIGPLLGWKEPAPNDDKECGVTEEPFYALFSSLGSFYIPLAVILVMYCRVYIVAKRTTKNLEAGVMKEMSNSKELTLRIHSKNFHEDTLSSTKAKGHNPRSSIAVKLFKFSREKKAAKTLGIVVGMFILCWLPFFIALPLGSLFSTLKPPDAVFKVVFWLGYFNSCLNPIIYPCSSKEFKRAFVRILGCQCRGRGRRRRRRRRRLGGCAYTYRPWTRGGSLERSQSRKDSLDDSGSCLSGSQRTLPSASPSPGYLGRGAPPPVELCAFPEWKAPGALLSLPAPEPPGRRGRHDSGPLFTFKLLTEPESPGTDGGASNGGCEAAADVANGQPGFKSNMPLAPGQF
# Cavia porcellus = species: Cavia porcellus; assay: spasmolytic activity in isolated guinea pig ileum preparation;- log KB; (Bacl2); format: functional, organism-based; settings: read-out: pA2 (converted)
# Rattus norvegicus [2] = assay: Antihypertensive activity in spontaneously hypertensive rats(SHR) at 50 mg/kg peroral dose after 1 h, expressed as decrease in systolic blood pressure; format: functional, Artery; settings: route oral
# Rattus norvegicus [3] = assay: Antihypertensive activity in spontaneously hypertensive rats(SHR) at 50 mg/kg peroral dose after 4 h, expressed as decrease in systolic blood pressure; format: functional, Artery; settings: route oral
# [4] = target: Beta-2 adrenergic receptor (Canis lupus familiaris) (UniProt P54833);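 further: Beta-2 blockade of isoproterenol-induced vasodepression in anesthetized dogs, given intravenously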
# Description: In vivo sympatholytic activity (isoproterenol-induced vasodepression) at beta 2-adrenergic receptor in anesthetized dog, iv
# [5] = target: Beta-1 adrenergic receptor (Homo sapiens) (UniProt P08588); settings: Canis lupus familiaris;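 further: anesthetized dogs dosed intravenously, sympatholytic action measured as inhibition of the chronotropic response to isoproterenol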
# Description: In vivo sympatholytic activity (isoproterenol-induced chronotropy) at beta 1-adrenergic receptor in anesthetized dog, iv
# [6] = target: Adrenergic receptor alpha (Homo sapiens) (UniProt P35348+P08913+P18825+P25100+P35368+P18089); settings: Canis lupus familiaris
# Description: In vivo sympatholytic activity (phenylephrine-induced vasopressor response) at alpha-adrenergic receptor in anesthetized dog, iv
# Beta-1 adrenergic receptor (Homo sapiens), sequence (P08588 whole entry, looked up): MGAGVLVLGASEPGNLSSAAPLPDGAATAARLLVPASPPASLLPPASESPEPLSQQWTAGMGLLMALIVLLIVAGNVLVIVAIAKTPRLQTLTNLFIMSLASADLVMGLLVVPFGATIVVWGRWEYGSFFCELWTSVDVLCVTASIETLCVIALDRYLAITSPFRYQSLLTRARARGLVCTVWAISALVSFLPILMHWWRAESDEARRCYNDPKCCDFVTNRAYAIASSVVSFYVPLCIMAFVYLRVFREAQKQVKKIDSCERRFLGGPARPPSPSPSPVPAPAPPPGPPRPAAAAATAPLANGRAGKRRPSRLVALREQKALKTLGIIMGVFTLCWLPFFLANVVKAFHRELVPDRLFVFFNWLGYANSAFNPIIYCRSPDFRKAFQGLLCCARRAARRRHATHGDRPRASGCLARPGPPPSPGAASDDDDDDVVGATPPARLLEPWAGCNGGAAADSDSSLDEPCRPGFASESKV
# Beta-2 adrenergic receptor (Canis lupus familiaris), sequence (P54833 whole entry, looked up): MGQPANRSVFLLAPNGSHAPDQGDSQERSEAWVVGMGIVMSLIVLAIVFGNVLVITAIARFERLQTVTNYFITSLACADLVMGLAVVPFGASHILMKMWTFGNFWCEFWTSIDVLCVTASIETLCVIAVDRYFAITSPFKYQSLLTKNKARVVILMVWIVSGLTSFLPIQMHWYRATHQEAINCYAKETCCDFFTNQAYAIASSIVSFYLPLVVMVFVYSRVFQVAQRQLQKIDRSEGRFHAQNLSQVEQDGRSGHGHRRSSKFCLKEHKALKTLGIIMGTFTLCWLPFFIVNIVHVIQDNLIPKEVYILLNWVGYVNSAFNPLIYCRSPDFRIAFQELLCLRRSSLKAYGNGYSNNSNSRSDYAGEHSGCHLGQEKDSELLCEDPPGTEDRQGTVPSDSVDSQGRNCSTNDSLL
SMILES,pA2 (Adrenergic receptor beta),Ratio (Oryctolagus cuniculus),pA2 [1],Kb (Cavia porcellus) [µM],BP decrease (Rattus norvegicus [2]) [mmHg],BP decrease (Rattus norvegicus [3]) [mmHg],DR10 [4] [mg/kg],DR10 [5] [mg/kg],DR10 [6] [mg/kg]
CC(CCc1ccc2c(c1)OCO2)NCC(O)c1ccc(O)c(C(=O)O)c1.Cl (centres undefined),5.1,0.8,5.2,> 100,6,5,,,
COc1ccc(C(O)CNC(C)CCc2ccc3c(c2)OCO3)cc1C(N)=O.Cl (centres undefined),8.46,> 2090,< 5.14,43.7,76,78,1.64,0.23,9.68
COC(=O)c1cc(C(O)CN2CCN(c3ccccc3OC)CC2)ccc1OC.Cl (centres undefined),6.41,0.3,7,34.7,37,35,,,
COc1ccccc1N1CCN(CC(O)c2ccc(O)c(C(N)=O)c2)CC1.Cl (centres undefined),6.44,0.1,7.42,13.5,45,35,,,
COc1ccc(C(O)CN2CCN(c3ccccc3OC)CC2)cc1C(N)=O.Cl (centres undefined),5.41,0.04,6.8,33.1,56,46,,,
CC(C)(CCc1ccc2c(c1)OCO2)NCC(O)c1ccc(O)c(C(N)=O)c1.Cl (centres undefined),7.15,69,5.31,0.676,43,61,0.76,2.1,
NC(=O)c1cc(C(O)CNCC2COc3ccccc3O2)ccc1O (centres undefined),5.84,0.4,6.2,26.9,24,18,,,
NC(=O)c1cc(C(O)CN2CCN(c3ccc(Cl)cc3)CC2)ccc1O (centres undefined),6.17,0.2,6.87,26.3,49,56,,,
CCNC(=O)c1cc(C(O)CN2CCC(n3c(O)nc4ccccc43)CC2)ccc1O.Cl (centres undefined),< 5.38,< 0.06,6.63,6.92,22,51,,,
CC(CCc1ccc2c(c1)OCO2)NCC(O)c1ccc(O)c(C(=O)NCC(C)(C)C)c1.Cl (centres undefined),5.88,0.8,6.05,0.126,55,24,> 10,> 10,6.6
CC(Cc1ccc2c(c1)OCO2)NCC(O)c1ccc(O)c(C(N)=O)c1 (centres undefined),5.97,0.9,6.04,4.57,79,73,7.13,6.75,16
CCNC(=O)c1cc(C(O)CNC(C)CCc2ccc3c(c2)OCO3)ccc1O.Cl (centres undefined),6.36,3.2,5.86,1.74,95,108,16.8,11.8,3.22
COC(=O)c1cc(C(O)CNC(C)CCc2ccc3c(c2)OCO3)ccc1OC.Cl (centres undefined),8.1,372,5.56,2.75,44,22,,,
Cl.NC(=O)c1cc(C(O)CN2CCN(c3cccc(C(F)(F)F)c3)CC2)ccc1O (centres undefined),6.9,3.7,6.33,1.82,1,18,,,
Cc1ccccc1N1CCN(CC(O)c2ccc(O)c(C3N=NN=N3)c2)CC1 (centres undefined),6.14,0.04,7.56,> 100,48,47,,,
Cl.NC(=O)c1cc(C(O)CN2CCN(c3ccccn3)CC2)ccc1O (centres undefined),5.37,0.2,6.08,126,16,13,,,
COC(=O)c1cc(C(O)CN2CCC(n3c(O)nc4ccccc43)CC2)ccc1O.Cl (centres undefined),5.71,0.06,6.94,1.26,52,37,,,
COC(=O)c1cc(C(O)CN2CCN(c3ccccc3C)CC2)ccc1O.Cl (centres undefined),6.79,0.2,7.45,0.871,5,6,,,
Cl.NC(=O)c1cc(C(O)CN2CCC(n3c(O)nc4ccccc43)CC2)ccc1O (centres undefined),5.45,0.06,6.7,> 61.7,6,15,,,
Cc1ccccc1N1CCN(CC(O)c2ccc(O)c(C(=O)NCC(C)(C)C)c2)CC1.Cl (centres undefined),6.33,0.1,7.21,0.224,41,32,,,
